Assay results from patent publication US20110046039A1, “POST-EXPOSURE PROPHYLAXIS AND TREATMENT OF INFECTIONS” (priority 2007, published 2011).
Where a SMILES comes first, the peptide text is derived from it. The star is where a group is joined. Cbz = O=C(OCc1ccccc1)*; CH2F = FC*

What was measured:
cultured macrophages = conditions: cited from earlier work
[1] = system: livers of anthrax-challenged mice; conditions: mouse, in vivo; cited from earlier work
anthrax spores = system: anthrax spores; design: species or system DBA/2 mice; conditions: mouse, in vivo

SMILES: COC(=O)C[C@H](NC(=O)[C@H](C)NC(=O)[C@@H](NC(=O)OCc1ccccc1)C(C)C)C(=O)CF [z-VAD, z-Val-Ala-Asp(OMe)-fluoromethylketone] (Cbz-Val-Ala-Asp(OMe)-CH2F)
- anti-apoptotic effect (cultured macrophages): protective anti-apoptopic effect
- anti-apoptotic effect [1]: protective anti-apoptopic effect

SMILES: CNC(=O)[C@H]1O[C@@H](n2cnc3c(NCc4cccc(I)c4)nc(Cl)nc32)[C@H](O)[C@@H]1O [Cl-IB-MECA, 2-chloro-N^6-(3-iodobenzyl)-adenosine-5′-N-methyluronamide]
- protection of exposed animals (anthrax spores): 40%
- protection of mice against post-exposure anthrax (anthrax spores): protect mice against post-exposure anthrax

SMILES: O=C(O)c1cn(C2CC2)c2cc(N3CCNCC3)c(F)cc2c1=O [ciprofloxacin]
- animals protected (anthrax spores; ip, 50 mg/kg): 30%

SMILES: CNC(=O)[C@H]1O[C@@H](n2cnc3c(NCc4cccc(I)c4)ncnc32)[C@H](O)[C@@H]1O [IB-MECA, N^6-(3-iodobenzyl)-adenosine-5′-N-methyluronamide]
- protection of mice against post-exposure anthrax (anthrax spores): protect mice against post-exposure anthrax
